Assays:
Experiment in all cases: relative viability (nuclei count vs DMSO), 5 days (fraction); higher = more cells survive
[1] = compound: CN(c1ncccc1CNc1nc(Nc2ccc3c(c2)CC(=O)N3)ncc1C(F)(F)F)S(C)(=O)=O + CS(=O)(=O)N1CCN(Cc2cc3nc(-c4cccc5[nH]ncc45)nc(N4CCOCC4)c3s2)CC1 [Pictilisib] (partner 1 µM)
Method in brief: (§1)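 Medians of duplicate plates are given as relative viability. That measure is the nuclei count in treated wells divided by the count in vehicle wells. Counts were taken on 4× images of lung cancer cell lines in 1536-well plates, 5 days after pin-tool dosing the day after seeding with one drug alone or a fixed anchor-drug dose plus five library-drug doses (not always all listed) in √10 steps.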

[2] = compound: CN(c1ncccc1CNc1nc(Nc2ccc3c(c2)CC(=O)N3)ncc1C(F)(F)F)S(C)(=O)=O + COc1cc2c(Oc3ccc(NC(=O)C4(C(=O)Nc5ccc(F)cc5)CC4)cc3F)ccnc2cc1OCCCN1CCOCC1 [Foretinib] (partner 0.25 µM)
Method in brief: as §1

[3] = compound: CN(c1ncccc1CNc1nc(Nc2ccc3c(c2)CC(=O)N3)ncc1C(F)(F)F)S(C)(=O)=O + CC(=O)c1c(C)c2cnc(Nc3ccc(N4CCNCC4)cn3)nc2n(C2CCCC2)c1=O [Palbociclib] (partner 0.5 µM)
Method in brief: as §1

[4] = compound: CN(c1ncccc1CNc1nc(Nc2ccc3c(c2)CC(=O)N3)ncc1C(F)(F)F)S(C)(=O)=O + CC(C)C[C@H](NC(=O)[C@H](Cc1ccccc1)NC(=O)c1cnccn1)B(O)O [Bortezomib] (partner 0.002 µM)
Method in brief: as §1

Cell Line | relative viability ([1]; first compound 0.01 µM) | relative viability ([1]; first compound 0.03162 µM) | relative viability ([1]; first compound 0.1 µM) | relative viability ([1]; first compound 1 µM) | relative viability ([2]; first compound 0.01 µM) | relative viability ([2]; first compound 0.03162 µM) | relative viability ([2]; first compound 0.1 µM) | relative viability ([2]; first compound 0.3162 µM) | relative viability ([2]; first compound 1 µM) | relative viability ([3]; first compound 0.01 µM) | relative viability ([3]; first compound 0.03162 µM) | relative viability ([3]; first compound 0.1 µM) | relative viability ([3]; first compound 0.3162 µM) | relative viability ([3]; first compound 1 µM) | relative viability ([4]; first compound 0.01 µM) | relative viability ([4]; first compound 0.03162 µM) | relative viability ([4]; first compound 0.1 µM) | relative viability ([4]; first compound 1 µM) | relative viability ([1]; first compound 0.3162 µM) | relative viability ([4]; first compound 0.3162 µM)
NCI-H1650 | 0.557 | 0.676 | 0.609 | 0.581 | 1.12 | 1.25 | 1.38 | 1.19 | 0.971 | 0.291 | 0.31 | 0.367 | 0.321 | 0.304 | 0.229 | 0.196 | 0.232 | 0.192 | – | –
NCI-H1651 | 0.523 | 0.617 | 0.601 | 0.546 | 0.817 | 0.88 | 0.906 | 0.765 | 0.784 | 0.527 | 0.529 | 0.529 | 0.487 | 0.5 | 0.936 | 1.04 | 0.939 | 0.9 | 0.596 | 0.885
NCI-H1666 | 0.549 | 0.373 | 0.404 | 0.404 | 0.977 | 0.874 | 0.851 | 0.976 | 0.843 | 0.696 | 0.614 | 0.627 | 0.639 | 0.543 | 0.887 | 0.678 | 0.668 | 0.589 | 0.532 | 0.708
NCI-H1734 | 0.418 | 0.555 | 0.454 | 0.475 | 0.93 | 0.911 | 0.796 | 0.828 | 0.712 | 0.35 | 0.327 | 0.345 | 0.348 | 0.304 | 1.06 | 1.1 | 0.996 | 0.949 | 0.468 | 0.857
NCI-H1755 | 0.436 | 0.417 | 0.426 | 0.451 | 0.88 | 0.983 | 0.9 | 0.832 | 0.833 | 0.449 | 0.473 | 0.452 | 0.44 | 0.434 | 0.985 | 0.967 | 0.983 | 0.826 | 0.477 | 0.849
NCI-H1915 | 1.01 | 0.826 | 0.905 | 0.939 | 1.13 | 1.06 | 1.04 | 1.12 | 1.04 | 0.498 | 0.532 | 0.58 | 0.525 | 0.509 | 0.988 | 1.05 | 1.01 | 0.963 | 1.01 | 0.888
NCI-H1975 | 0.278 | 0.282 | 0.337 | 0.281 | 0.962 | 0.984 | 0.959 | 0.84 | 0.929 | 0.602 | 0.639 | 0.712 | 0.532 | 0.502 | 0.423 | 0.449 | 0.44 | 0.276 | 0.268 | 0.395
NCI-H1993 | 0.832 | 0.754 | 0.856 | 0.775 | 0.692 | 0.994 | 0.744 | 0.75 | 0.767 | 0.479 | 0.64 | 0.669 | 0.652 | 0.597 | 0.993 | 1.22 | 1.11 | 0.907 | 0.828 | 1.04
NCI-H2009 | 0.793 | 0.91 | 0.745 | 0.958 | 1.17 | 1.22 | 1.27 | 1.27 | 0.965 | 0.207 | 0.179 | 0.251 | 0.202 | 0.191 | 1.32 | 1.04 | 1.02 | 0.955 | 0.95 | 0.991
NCI-H2023 | 0.265 | 0.329 | 0.199 | 0.2 | 0.791 | 0.715 | 0.731 | 0.752 | 0.642 | 0.382 | 0.405 | 0.376 | 0.339 | 0.229 | 0.985 | 1.02 | 0.963 | 0.938 | 0.225 | 0.945
NCI-H2085 | 0.449 | 0.49 | 0.624 | 0.515 | 0.878 | 0.925 | 0.906 | 0.824 | 0.748 | 0.444 | 0.467 | 0.443 | 0.462 | 0.401 | 1.06 | 1.11 | 1.04 | 0.949 | 0.469 | 1
NCI-H2087 | 0.852 | 0.77 | 0.978 | 0.951 | 1.04 | 1.03 | 1.02 | 1.2 | 0.974 | 0.23 | 0.277 | 0.258 | 0.252 | 0.279 | 1.13 | 0.699 | 0.882 | 0.768 | 0.914 | 0.807
NCI-H2126 | 0.495 | 0.469 | 0.452 | 0.459 | 1.34 | 1.13 | 1.06 | 1.19 | 1.08 | 0.358 | 0.351 | 0.308 | 0.352 | 0.306 | 1.12 | 1.1 | 1.04 | 1.1 | 0.533 | 1.1
NCI-H2228 | 0.422 | 0.453 | 0.376 | 0.294 | 1 | 0.995 | 0.749 | 0.927 | 0.811 | 0.836 | 0.878 | 0.881 | 0.749 | 0.6 | 0.817 | 1.24 | 1.05 | 1.02 | 0.358 | 1.06
NCI-H2347 | 0.609 | 0.614 | 0.74 | 0.362 | 0.612 | 0.992 | 1.1 | 0.555 | 0.616 | 0.434 | 0.389 | 0.426 | 0.354 | 0.377 | 1.08 | 0.93 | 0.927 | 0.45 | 0.919 | 0.801
NCI-H2405 | 0.552 | 0.393 | 0.42 | 0.376 | 1.02 | 1.07 | 0.976 | 0.886 | 0.82 | 0.51 | 0.518 | 0.504 | 0.466 | 0.391 | 1.05 | 0.972 | 1.03 | 0.813 | 0.383 | 0.865

Source: the supplement of paper PMC10307832
